Data on seven compounds can be found in paper PMC11721022, “Standardized Chromatographic and Computational Approaches for Lipophilicity Analysis of Five Gliflozin Antidiabetic Drugs in Relation to Their Biological Activity” (Molecules, 2024).

What is called chromatographic logP is lipophilicity estimated from chromatographic retention. Lower therefore signals a more hydrophilic compound. One may read the IC50 as the concentration that inhibits the measured activity by half. For orientation: log P means a log measure of how a compound divides between an organic and an aqueous phase.

Data set [1] is described as follows: HPLC lipophilicity (log kW, standardized to log PEXP). Format: physicochemical. Here is the method:
All experiments were performed using an HPLC system equipped with a solvent delivery pump 515 and a UV/VIS detector 2487 from Waters UK Sales (Elstree, UK), a degasser 964 from Jasco Inc. (Easton, MD, USA), and LiChrospher RP18, RP8 and CN columns (125 × 4.0 mm, 5 µm) from Merck. For RP18 and RP8 stationary phases, acetonitrile was used in the range of 35–60% and methanol in the range of 55–80%. For CN adsorbent, acetonitrile was used in the range 30–55% and methanol in the range 45–70%. For all chromatographic systems, a 5% step change in the concentration of the organic modifier was applied (Table S2 in Supplementary Files). The flow for each mobile phase and each chromatographic run was 1 mL/min while detection was performed at 260 nm. The analyzed drugs and six reference substances were dissolved in methanol to obtain concentrations of 0.1 mg/mL and injected into the column in the volume of 20 µL. All experiments were performed in triplicate with a constant temperature of 23 ± 0.5 °C.
(§1) In our study, six standards of known lipophilicity in the range of 0.62–3.5 were used. For each standard, the same chromatographic procedures were performed as for the analyzed drugs, obtaining their RF or tR values. Then, the RM, RMW, log k, and log kW values were calculated using Equations (1)–(3). In the next step, correlations between the chromatographically obtained RMW or log kW values for these six standards and their literary log P values were calculated and expressed as respective calibration equations (Table 1). In addition, using these calibration equations, the chromatographic systems were evaluated by calculating the log PEXP values for the standards. […] From these calibration equations, the experimental log PTLC and log PHPLC (log PEXP) for the examined drugs were determined, using their RMW and log kW values.

The nature of data set [2]: Experimental lipophilicity from HPLC and TLC methods combined (standardization procedure). Particulars: mean over all HPLC and TLC systems. The data set is classed as physicochemical. Here is the method: as §1
Data set [3] relates to SGLT2. Put plainly: SGLT2 inhibition (literature). The data set is classed as biochemical. Particulars: pIC50 (SGLT2, literature) minus mean log PEXP.
Details of data set [4]: method as in PMID 30151080, PMID 34586753. Particulars: cited from earlier work.
Details of data set [5]: method as in PMID 30151080, PMID 34586753. The conditions noted are these: cited from earlier work. This is another data set of the same source.
A short description of data set [6]: TLC lipophilicity (RMW, standardized to log PEXP). The data set is classed as physicochemical. Here is the method: Plates (10 × 10 cm, 0.25 mm) pre-coated with silica gel RP18F254, RP8F254 and CNF254 from Merck were used as the stationary phases. The tested drugs and six reference substances were dissolved in methanol to obtain working solutions at a concentration of 2 mg/mL. Volumes of 5 µL of these working solutions were spotted onto the plates which were then developed at a distance of 9 cm in the horizontal developing chambers (Chromdes, Lublin, Poland). The ranges for the organic modifier concentration in water varied depending on the type of stationary phase and the modifier used. For RP18 and RP8 systems, acetonitrile in the range 35–60% and methanol in the range 60–85% were used. For CN systems, acetonitrile was used in the range of 40–60% while methanol was used in the range of 45–65%. […] All experiments were performed in triplicate with a constant temperature of 23 ± 0.5 °C.
as §1

For data set [7], the system named is SGLT2. Particulars: Table 6; cited from earlier work.
Details of data set [8]: method as in earlier work. Particulars: established lipophilicity of standards; cited from earlier work.
Setting [9] is: LiChrospher CN HPLC column (125 × 4.0 mm, 5 µm), HPLC.CN/MeOH (CN column, methanol modifier).
[10] abbreviates: LiChrospher RP8 HPLC column (125 × 4.0 mm, 5 µm), HPLC.RP8/ACN.
[11] abbreviates: LiChrospher RP18 HPLC column (125 × 4.0 mm, 5 µm), HPLC.RP18/ACN.
Setting [12] is: LiChrospher RP18 HPLC column (125 × 4.0 mm, 5 µm), HPLC.RP18/MeOH.
[13] abbreviates: LiChrospher CN HPLC column (125 × 4.0 mm, 5 µm), HPLC.CN/ACN (CN column, acetonitrile modifier).
The mark [14] stands for this setting: LiChrospher RP8 HPLC column (125 × 4.0 mm, 5 µm), HPLC.RP8/MeOH.
The mark [15] stands for this setting: HPLC.CN/MeOH (CN column, methanol modifier).

On to `CCOc1ccc(Cc2cc([C@@H]3O[C@H](CO)[C@@H](O)[C@H](O)[C@H]3O)ccc2Cl)cc1` [DAPA, dapagliflozin], for which the “log PEXP” value is on record as 2.34 in data set [1] (HPLC.CN/ACN (CN column, acetonitrile modifier)); 3.20 in data set [1] (HPLC.RP8/MeOH); 3.14 in data set [6] (TLC.RP8/MeOH). In addition, the chromatographic logP in data set [1] (setting [9]) came to 3.08; in data set [1] (setting [10]), 2.11; in data set [1] (setting [11]) it was 2; in data set [1] (setting [12]), 3.27; in data set [6] (TLC.CN/ACN), 2.03; in data set [6] (TLC.CN/MeOH) it was 4.72. Also, the chromatographic logP in data set [6] (TLC.RP8/ACN) worked out at 2.3; in data set [6] (TLC.RP18/ACN), 2.22; in data set [6] (TLC.RP18/MeOH), 3.58. Also, the “log PEXP (Mean ± SD)” value in data set [2] came out at 2.83 ± 0.78. The “LLE (lipophilic ligand efficiency)” value in the data set with SGLT2 [3] is reported as 6.12. The “PB (protein-binding capacity)” value in data set [4] is 91%. Moreover, the “CL (apparent total clearance)” value in data set [5] was 12.42 L/h. Moreover, the “VD (apparent volume of distribution)” value in data set [5] is listed as 118 L.

As for `CCOc1ccc(Cc2cc([C@]34OC[C@](CO)(O3)[C@@H](O)[C@H](O)[C@H]4O)ccc2Cl)cc1` [ERTU, ertugliflozin], the “log PEXP” value is on record as 2.22 in data set [1] (HPLC.RP18/ACN) and 2.99 in data set [6] (TLC.RP8/ACN). The chromatographic logP came out at 2.49 in data set [1] (setting [13]); 3.36 in data set [1] (setting [9]); 2.4 in data set [1] (setting [10]); 3.49 in data set [1] (setting [14]); 3.59 in data set [1] (setting [12]); 2.01 in data set [6] (TLC.CN/ACN). Moreover, the chromatographic logP was found to be 3.97 in data set [6] (TLC.CN/MeOH), 3.54 in data set [6] (TLC.RP8/MeOH), 3.13 in data set [6] (TLC.RP18/ACN) and 3.27 in data set [6] (TLC.RP18/MeOH). In data set [2], the “log PEXP (Mean ± SD)” value is on record as 3.04 ± 0.61. Moreover, the “LLE (lipophilic ligand efficiency)” value with SGLT2 [3] was 6.02. In data set [4], the “PB (protein-binding capacity)” value is 94%. The 50% inhibitory concentration (IC50) in the data set with SGLT2 [7] was 0.87 nM. Further, the “CL (apparent total clearance)” value in data set [5] was 10.68 L/h. The “T0.5 (half-life)” value in data set [5] is on record as 11 h. In data set [5], the “VD (apparent volume of distribution)” value is listed as 85.5 L.

Turning to `Cc1ccc([C@@H]2O[C@H](CO)[C@@H](O)[C@H](O)[C@H]2O)cc1Cc1ccc(-c2ccc(F)cc2)s1` [CANA, canagliflozin], the “log PEXP” value is reported as 3.23 in data set [1] (HPLC.RP8/ACN), 4.43 in data set [1] (HPLC.RP8/MeOH) and 3.28 in data set [1] (HPLC.RP18/ACN). For the same compound, the chromatographic logP in data set [1] (setting [13]) was 3.73; in data set [1] (setting [9]), 4.91; in data set [1] (setting [12]), 4.55; in data set [6] (TLC.CN/ACN) it was 2.4; in data set [6] (TLC.CN/MeOH) it was 5.86; in data set [6] (TLC.RP8/ACN), 3.55. Moreover, the chromatographic logP in data set [6] (TLC.RP8/MeOH) worked out at 4.07; in data set [6] (TLC.RP18/ACN), 3.47; in data set [6] (TLC.RP18/MeOH), 4.43. Also, the “log PEXP (Mean ± SD)” value in data set [2] was 3.99 ± 0.91. For the same compound, the “LLE (lipophilic ligand efficiency)” value with SGLT2 [3] is given as 4.67. Further, the “PB (protein-binding capacity)” value in data set [4] was 99%. In addition, in the data set on SGLT2 [7], the IC50 was 2.2 nM. For the same compound, the “CL (apparent total clearance)” value in data set [5] is 11.52 L/h. Also, the “VD (apparent volume of distribution)” value in data set [5] was 83.5 L.

On to `Nc1ccccc1O` [S1, 2-aminophenol], for which the log partition coefficient (log P) in data set [8] is recorded as 0.62.

Consider `OC[C@H]1O[C@@H](c2ccc(Cl)c(Cc3ccc(O[C@H]4CCOC4)cc3)c2)[C@H](O)[C@@H](O)[C@@H]1O` [EMPA, empagliflozin], for which the “log PEXP” value was found to be 2.66 in data set [1] (setting [15]), 1.70 in data set [1] (HPLC.RP8/ACN) and 1.30 in data set [6] (TLC.RP18/ACN). Also, the chromatographic logP in data set [1] (setting [13]) was found to be 2.3; in data set [1] (setting [14]) it was 2.78; in data set [1] (setting [11]), 1.35; in data set [1] (setting [12]) it was 2.85; in data set [6] (TLC.CN/ACN), 1.87; in data set [6] (TLC.CN/MeOH), 3.51. Further, the chromatographic logP is 1.68 in data set [6] (TLC.RP8/ACN), 2.48 in data set [6] (TLC.RP8/MeOH) and 2.99 in data set [6] (TLC.RP18/MeOH). Moreover, the “log PEXP (Mean ± SD)” value in data set [2] turned out to be 2.28 ± 0.73. Moreover, the “LLE (lipophilic ligand efficiency)” value with SGLT2 [3] was found to be 6.23. Further, the “PB (protein-binding capacity)” value in data set [4] is on record as 86%. Also, the “CL (apparent total clearance)” value in data set [5] is recorded as 10.6 L/h. In addition, the “T0.5 (half-life)” value in data set [5] is 12.4 h. Moreover, the “VD (apparent volume of distribution)” value in data set [5] is 73.8 L.

Take `c1ccc(Nc2ccccc2)cc1` [S6, diphenylamine]: the “log P” value in data set [8] is recorded as 3.5.

With `CCOc1ccc(Cc2cc([C@@H]3O[C@H](SC)[C@@H](O)[C@H](O)[C@H]3O)ccc2Cl)cc1` [SOTA, sotagliflozin], the “log PEXP” value is on record as 4.57 in data set [1] (setting [15]), 4.43 in data set [1] (HPLC.RP8/MeOH) and 4.50 in data set [1] (HPLC.RP18/MeOH). The chromatographic logP is 3.59 in data set [1] (setting [13]); 3.28 in data set [1] (setting [10]); 3.4 in data set [1] (setting [11]); 2.32 in data set [6] (TLC.CN/ACN); 4.61 in data set [6] (TLC.CN/MeOH); 4.08 in data set [6] (TLC.RP8/ACN). In addition, the chromatographic logP in data set [6] (TLC.RP8/MeOH) is 4.26; in data set [6] (TLC.RP18/ACN), 3.69; in data set [6] (TLC.RP18/MeOH), 4.5. Also, the “log PEXP (Mean ± SD)” value in data set [2] stood at 3.94 ± 0.67. Further, the “LLE (lipophilic ligand efficiency)” value in the data set with SGLT2 [3] is reported as 4.8. Moreover, the “PB (protein-binding capacity)” value in data set [4] is 98%. Further, the IC50 in the data set on SGLT2 [7] was 1.8 nM. For the same compound, the “CL (apparent total clearance)” value in data set [5] was 261 L/h. In data set [5], the “T0.5 (half-life)” value is on record as 21 h. Moreover, the “VD (apparent volume of distribution)” value in data set [5] is listed as 9392 L.
